According to patent publication US20130317096A1, “SYNERGISTIC INTERACTION OF AT LEAST ONE VITAMIN E COMPONENT AND TYROSINASE INHIBITORS FOR DERMATOLOGICAL APPLICATIONS” (Davos Life Science Pte Ltd, priority 2010, published 2013):
“Also recorded” adds a separate entry of the source.

What was measured:
[1] = test system: B16 melanoma cells; assay: MTT cell viability assay; type: cell-based, mouse; conditions: 24 hrs of treatment; for B16 melanoma cell viability / proliferation rate: increasing dosages
Description: B16 mouse melanoma cells were purchased from (ATCC, Manassas, Va., USA).
The base medium for the cell line was Dulbecco's modified Eagle's medium (DMEM). To make the complete growth medium, fetal bovine serum (final concentration, 10%) was added to the base medium. Tocotrienol (T3) and tocopherol (TP) isomers and the palm tocotrienol-rich fraction (TRF) were purified from a palm fatty acid distillate (PFAD) using molecular distillation and Novasep® equipment (Novasep, Pompey, France). The extraction facility is located in Tuas, Singapore. The PFAD feed was purchased from Kuala Lumpur Kepong Berhad (Kuala Lumpur, Malaysia). The purity of the vitamin E isomers was verified by HPLC and gas chromatography (GC) percentage peak area.
For the cell viability study, 5×10^3 cells re-suspended in 100 μl of medium were plated into each well of a 96-well plate. The cells were then treated with different concentrations of the vitamin-E isomers for 24 hrs. After the treatment, 20 μl of MTT solution (1 mg/ml in PBS; Sigma-Aldrich, St. Louis, Mo., USA) was added to each well and the cells were incubated at 37° C. for 2 hrs. The formazan crystals were then re-suspended in 200 μl of DMSO and the intensity at 595 nm was measured.

[2] = test system: cleaved caspase 3 and PARP; assay: Western blot of apoptotic molecules; type: cell-based, mouse; conditions: B16 melanoma cells
[3] = test system: tyrosinase mRNA; assay: Reverse transcriptase PCR of tyrosinase mRNA; type: cell-based, mouse; conditions: B16 melanoma cells
Description: Total RNA was isolated using Trizol reagent according to the manufacturer's protocol (Invitrogen, Carlsbad, Calif., USA). cDNA was synthesized using the SuperScript First Strand Synthesis System (Invitrogen, Carlsbad, Calif., USA) and was then amplified by PCR with tyrosinase-specific primers (forward primer, tyrosinase-S,5′-[…]-3′ [−2236/−2217] (SEQ ID NO: 1) and reverse primer, tyrosinase-AS,5′-[…]-3′ [+63/+42]) (SEQ ID NO: 2) and GAPDH specific primers: 5′ to 3′F […] (SEQ ID NO: 3); 5′ to 3′R […] (SEQ ID NO: 4). The PCR cycling protocol was as follows: 30 cycles for 10 min at 95° C., 30 sec at 95° C., 30 sec at 55° C., 1 min at 72° C., and 10 min at 72° C. Glyceraldehyde 3-phosphate dehydrogenase (GAPDH) was amplified as an internal control. The PCR products were electrophoresed on a 2% agarose gel and analyzed using a gel documentation system.

[4] = test system: B16 melanoma cells; assay: Anti-pigmentation effect, photographs of cell pellets; type: cell-based, mouse
Description: (§1) At different time points, cells were harvested using trysin-EDTA and the cell pellets were washed once with phosphate-buffered saline (PBS). A sample amount from each compound treatment group was divided into two equal parts. These cell pellets were then stored at −80° C. prior to the measurement of the tyrosinase activity and melanin content.

[5] = test system: tyrosinase; assay: Western blot of tyrosinase protein expression in B16 melanoma cells; type: cell-based, mouse; conditions: for tyrosinase protein suppression, dose response and relative potency: increasing dosage; for time response of tyrosinase suppression: single dose, 24 hrs versus 48 hrs
Description: Carcinogenesis, 2006, 27, 2180-9. Briefly, cell lysates were prepared by suspending cell pellets in lysis buffer (50 mmol/l Tris-HCl [pH 8.0], 150 mmol/l NaCl, 1% NP40, 0.5% deoxycholate, 0.1% SDS, […], 1 μg/ml leupeptin, and 1 mmol/l phenylmethylsulfonyl fluoride). The protein concentration was measured using the DC Protein Assay kit (Bio-Rad, Hercules, Calif., USA). An equal amount of protein (30 μg) was loaded onto a 10% SDS polyacrylamide gel for electrophoresis, then transferred onto a polyvinylidene difluoride membrane (Amersham, Piscataway, N.J., USA). The membrane was then incubated with primary antibodies for 1 hr at room temperature against tyrosinase, Id1, and beta-actin (Santa Cruz Biotechnology, Inc., Santa Cruz, Calif., USA). After incubation with appropriate secondary antibodies, signals were visualized by an ECL Western blotting system (Amersham). The expression of β-actin was assessed as an internal loading control for total cell lysate.

[6] = test system: tyrosinase; assay: UV-induced tyrosinase protein expression, Western blot; type: cell-based, mouse; conditions: for tyrosinase protein expression of B16 cells exposed to UV: UV 1, 10, 30 and 60 minutes
Description: (§2) The UVB source for cell irradiation was provided using a UVP UVM-57 handheld UV lamp (UVP Inc, Upland, Calif., USA).
Briefly, cell lysates were prepared by suspending cell pellets in lysis buffer (50 mmol/l Tris-HCl [pH 8.0], 150 mmol/l NaCl, 1% NP40, 0.5% deoxycholate, 0.1% SDS, 1 mg/ml aprotinin, 1 μg/ml leupeptin, and 1 mmol/l phenylmethylsulfonyl fluoride). The protein concentration was measured using the DC Protein Assay kit (Bio-Rad, Hercules, Calif., USA). An equal amount of protein (30 μg) was loaded onto a 10% SDS polyacrylamide gel for electrophoresis, then transferred onto a polyvinylidene difluoride membrane (Amersham, Piscataway, N.J., USA). The membrane was then incubated with primary antibodies for 1 hr at room temperature against tyrosinase, Id1, and beta-actin (Santa Cruz Biotechnology, Inc., Santa Cruz, Calif., USA). After incubation with appropriate secondary antibodies, signals were visualized by an ECL Western blotting system (Amersham). The expression of β-actin was assessed as an internal loading control for total cell lysate.

[7] = test system: B16 cells xenografted on the flank of nude mice; assay: B16 xenograft model in nude mice; type: in vivo; conditions: cells pre-treated with 20 μM for 1 week, 14 days oral supplementation
Description: The experimental protocol was approved by the IACUC Committee of the A-STAR Biological Resource Centre (BRC) at Biopolis (IACUC no. 080302). Male BALB/c athymic nude mice (4-5 weeks old, 18-22 g) were purchased from The Jackson Laboratory (Bar Harbor, Me., USA). Mice were housed in Department 1 of the Biological Resource Centre (Biopolis, Singapore) under the standard condition (20.8±2° C., 55±1% relative humidity, 12 hrs light/dark cycle) with rodent diet (Harlan Laboratories, Inc., Indianapolis, Ind., USA) and chlorinated reverse osmosis water supplied in a pathogen-free environment. Briefly, B16 cells were pre-treated with 20 μM of γ- and δ-T3, or palm TRF for 1 week. Then, 5×10^5 pre-treated B16 cells in 100 μl serum-free DMEM were injected subcutaneously into the flank of nude mice using a 1-ml syringe with a 26-gauge needle (Becton Dickinson, Franklin Lakes, N.J., USA). This was followed by a 2-week oral supplementation of γ- and δ-T3, or palm TRF at the dose of 100 mg/kg/day. Altogether, there are four experimental groups: G1, vehicle control; G2, γT3 (100 mg/kg/d); G3, δT3 (100 mg/kg/d); and G4, full spectrum palm TRF (100 mg/kg/d). The mice were weighed daily and the tumors were measured using a Digital Carbon Fiber Caliper (Fisher Scientific, Pittsburgh, Pa., USA) at the 5th and 14th day after innoculation. After 14 days of treatment, the mice were euthanized by CO2 inhalation. Blood samples were collected through cardiac bleeding using a 26-gauge needle. Blood samples were incubated at room temperature for 30 min, followed by centrifugation at 4400 rpm for 30 min at 4° C. Serum, as the supernatant, was separated from plasma and stored at −80° C. Tumors, liver, kidney, spleen, lung, heart, and skin were harvested.

[8] = test system: B16 melanoma cells; assay: Melanin content of treated B16 melanoma cells; type: cell-based, mouse; conditions: for melanin content lower than controls: 20 μM
Description: as §1
Harvested cell pellets were dissolved in 1 ml of 1N sodium hydroxide before incubation at 80° C. The melanin content was then immediately measured at 420 nm. The absorbance percentage values of the treated groups in comparison to untreated controls were calculated against per μg of the determined total protein content.

[9] = test system: B16 cells; assay: Melanin content of pre-treated B16 cells after UV exposure; type: cell-based, mouse; conditions: 10 minutes UV exposure (short and long wave UV)
Description: as §2

[10] = 0.05% (3.5 mM kojic acid, 4.5 mM sodium lactate)

Compound: O=c1cc(CO)occ1O [kojic acid]
- concentration with anti-proliferation effect [1]: ≥ 0.5%
- B16 melanoma cell viability / proliferation rate [1]: inhibit B16 melanoma cell viability at high concentrations
- induction of apoptotic molecules (cleaved caspase 3 and PARP) [2]: induced cellular apoptosis; also recorded: induced critical apoptotic molecules in a dose-dependent manner
- tyrosinase mRNA [3]: not affected; also recorded: No change of tyrosinase mRNA
- cell pellet pigmentation ([4]; 20 μM): comparable pigmentation level to controls
- cell pellet pigmentation [4, 10]: lighter cell pigmentation

Compound: CC(O)C(=O)[O-].[Na+] (stereo not shown) [sodium lactate, reference compound]
- tyrosinase protein expression ([5]; 20 μM treatment): did not result in observable down-regulation; also recorded: does not suppress tyrosinase protein expression
- tyrosinase protein suppression, dose response and relative potency [5]: observed only at much higher concentration
- time response of tyrosinase suppression [5]: opposite observation; also recorded: diminished after 48 hrs
- tyrosinase protein expression ([5]; up to 100 μM): does not suppress tyrosinase protein expression
- tyrosinase mRNA [3]: not affected; also recorded: No change of tyrosinase mRNA
- cell pellet pigmentation ([4]; 20 μM): comparable pigmentation level to controls
- cell pellet pigmentation [4, 10]: Lighter pigmentation

Compound: Cc1c(C)c2c(c(C)c1O)CC[C@@](C)(CCC[C@H](C)CCC[C@H](C)CCCC(C)C)O2 [α-tocopherol, 5,7,8-trimethyltocol]
- time response of tyrosinase suppression [5]: no impact on the suppression of tyrosinase
- tyrosinase mRNA [3]: No change of tyrosinase mRNA
- tyrosinase mRNA ([3]; listed as αTP): not affected
- cell pellet pigmentation ([4]; 20 μM): comparable pigmentation level to controls
- tyrosinase protein expression of B16 cells exposed to UV [6]: not able to block UVB-induced activation of tyrosinase at all time points tested

Compound: CC(C)=CCC/C(C)=C/CC/C(C)=C/CC[C@]1(C)CCc2c(C)c(O)cc(C)c2O1 [β-tocotrienol, 5,8-dimethyltocotrienol]
- B16 melanoma cell viability / proliferation rate [1]: inhibited the proliferation rate of B16 melanoma cells in a dose-dependent fashion; also recorded: inhibit B16 melanoma cell viability at high concentrations
- induction of apoptotic molecules (cleaved caspase 3 and PARP) [2]: induced critical apoptotic molecules in a dose-dependent manner
- induction of apoptotic molecules (cleaved caspase 3 and PARP) ([2]; listed as β-T3): induced cellular apoptosis

Compound: CC(=O)Oc1cc2c(c(C)c1C)OC(C)(CC/C=C(\C)CC/C=C(\C)CCC=C(C)C)CC2 (stereo not shown) [γT3 acetate, γ-tocotrienol acetate]
- tyrosinase protein expression ([5]; 20 μM treatment): suppresses tyrosinase protein expression

Compound: CC(C)=CCCC(C)=CCCC(C)=CCCC1(C)CCc2cc(OC(=O)CCC(=O)O)c(C)c(C)c2O1 (stereo not shown) [γT3 succinate, γ-tocotrienol succinate]
- tyrosinase protein expression ([5]; up to 60 μM): does not suppress tyrosinase protein expression

Compound: CC(C)=CCC/C(C)=C/CC/C(C)=C/CC[C@]1(C)CCc2cc(O)cc(C)c2O1 [δ-tocotrienol, 8-methyltocotrienol]
- B16 melanoma cell viability / proliferation rate [1]: inhibited the proliferation rate of B16 melanoma cells in a dose-dependent fashion; also recorded: inhibit B16 melanoma cell viability at high concentrations
- induction of apoptotic molecules (cleaved caspase 3 and PARP) [2]: induced critical apoptotic molecules in a dose-dependent manner
- induction of apoptotic molecules (cleaved caspase 3 and PARP) ([2]; listed as δ-T3): induced cellular apoptosis
- pigmentation of solid tumors [7]: lighter in colour compared to controls
- tumor size [7]: significantly smaller
- tyrosinase protein expression ([5]; 20 μM treatment, listed as δ-T3): remarkable suppression of tyrosinase protein expression
- tyrosinase protein expression ([5]; 20 μM treatment, listed as δT3): suppresses tyrosinase protein expression
- tyrosinase protein suppression, dose response and relative potency ([5]; listed as δ-T3): significant suppression of tyrosinase in a dose-dependent manner
- tyrosinase protein suppression, dose response and relative potency ([5]; listed as δT3): most potent inhibitor of tyrosinase protein
- time response of tyrosinase suppression ([5]; listed as δ-T3): enhanced by increasing the treatment period from 24 to 48 hrs
- time response of tyrosinase suppression ([5]; listed as δT3): enhanced after a 48 hr incubation period
- tyrosinase mRNA [3]: No change of tyrosinase mRNA
- tyrosinase mRNA ([3]; listed as δ-T3): not affected
- cell pellet pigmentation ([4]; 20 μM, listed as delta-T3): lighter cell pigmentation
- cell pellet pigmentation ([4]; 20 μM, listed as δT3): lighter cell pigmentation
- melanin content lower than controls ([8]; day 5): 45%
- melanin content lower than controls ([8]; day 9): 30%
- constitutive melanin synthesis ([8]; B16 melanoma cells): suppress constitutive melanin synthesis
- melanin content after UV exposure [9]: significantly suppressed the melanin content
- suppression of short-term UVB-induced tyrosinase activation ([6]; <10 min UVB): more potent than γT3
- tyrosinase protein expression of B16 cells exposed to UV [6]: significantly suppressed the tyrosinase protein expression
- long-term inhibitory effect on UVB-induced tyrosinase activation ([6]; long-term UVB): comparable

Compound: CC(=O)Oc1cc(C)c2c(c1)CCC(C)(CCC=C(C)CCC=C(C)CCC=C(C)C)O2 (stereo not shown) [δT3 acetate, δ-tocotrienol acetate]
- tyrosinase protein expression ([5]; 20 μM treatment): suppresses tyrosinase protein expression

Compound: alpha arbutin [reference compound]
- B16 melanoma cell viability / proliferation rate [1]: inhibit B16 melanoma cell viability at high concentrations
- induction of apoptotic molecules (cleaved caspase 3 and PARP) [2]: induced critical apoptotic molecules in a dose-dependent manner
- concentration at which suppression of tyrosinase is observed [5]: 1 mM
- tyrosinase protein expression ([5]; up to 60 μM): does not suppress tyrosinase protein expression
- cell pellet pigmentation ([4]; 20 μM): comparable pigmentation level to controls
- cell pellet pigmentation ([4]; 1 mM): lighter cell pigmentation
